Measured values as given in publication PMC5053523, “In Vitro Antibacterial Activity of Rhodanine Derivatives against Pathogenic Clinical Isolates” (PLoS ONE, 2016).
Values after ≈ are worked out from the molar mass of the structure shown. Read-outs that look alike come from different tables or passages of the source.

How the values were obtained:
Type in all cases: cell-based
[1] = system: vancomycin resistant enterococci (VRE) E. faecalis; assay: Broth microdilution MIC/MBC, VRE E. faecalis; conditions: for MIC: read-out: MIC
[2] = system: vancomycin resistant enterococci (VRE) E. faecium; assay: Broth microdilution MIC/MBC, VRE E. faecium; conditions: for MIC: read-out: MIC
[3] = system: methicillin-resistant Staphylococcus aureus (MRSA); assay: Broth microdilution MIC/MBC, MRSA
[4] = system: Vancomycin Resistant Staphylococcus aureus (VRSA); assay: Broth microdilution MIC/MBC, VRSA; conditions: for MBC / MIC: VRSA
[5] = system: B. licheniformis; assay: Broth microdilution MIC/MBC, B. licheniformis; conditions: Bacillus licheniformis; for MBC: read-out: MBC; for MIC: read-out: MIC
[6] = system: Clostridium difficile; assay: MIC against Clostridium difficile, anaerobic broth dilution; conditions: Clostridioides difficile
Experimental: Clinical isolates of C. difficile were cultured on anaerobic blood agar and incubated anaerobically using container gas pack system at 37° C for 48 hours. The colonies were then suspended in pre-reduced phosphate buffered saline (PBS) and adjusted to 0.5 McFarland standard then diluted 1:300 in pre-reduced Supplemented Brain Heart Infusion broth. The bacterial suspension was then transferred to each well of 96-well plates, the drugs were added to the first row of wells in the required concentrations and serially diluted along the plates. The plates were incubated again anaerobically using container gas pack system at 37° C for 48 hours. The (MIC) recorded was the lowest concentration of the drug showing no visible growth of the bacteria.

[7] = system: P. aeruginosa; assay: Broth microdilution MIC, P. aeruginosa; conditions: Pseudomonas aeruginosa
[8] = system: K. pneumoniae; assay: Broth microdilution MIC, K. pneumoniae
[9] = system: Klebsiella pneumoniae; assay: MIC with/without sub-MIC colistin, Klebsiella pneumoniae
Method in brief: (§1)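 Sub-MIC colistin or PMBN added to broth MIC tests of rhodanines and reference antibiotics against Gram-negative strains; AcrAB efflux-deficient E. coli SM1411ΔacrAB also tested.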

[10] = system: Pseudomonas aeruginosa; assay: MIC with/without sub-MIC colistin, Pseudomonas aeruginosa
Method in brief: as §1

[11] = system: Acinetobacter baumannii; assay: MIC with/without PMBN, Acinetobacter baumannii
Method in brief: as §1

[12] = system: Salmonella Typhimurium; assay: MIC with/without PMBN, Salmonella Typhimurium
Experimental: The MIC of the rhodanines and control antibiotics, in the presence of a sub-inhibitory concentration of colistin or polymixin B nonapeptide (PMBN), against Gram-negative bacteria was evaluated as described before. The antibacterial activity of the rhodanines was further investigated against E. coli SM1411Δ acrAB, a strain that is deficient in the multidrug-resistant AcrAB efflux pump, as described before.

[13] = system: Pseudomonas aeruginosa; assay: MIC with/without PMBN, Pseudomonas aeruginosa
Method in brief: as §1

[14] = E. faecalis NR31972 Strain SF 28073
[15] = E. faecium HM 968 Strain ERV102
[16] = E. faecium NR31914 Strain E0120
[17] = E. faecium Patient #1–1 NR-31903
[18] = NCIB9375, B. licheniformis Gibson 46 (NCIB 9375) NR-2494
[19] = NRS712, B. licheniformis NRS 712 NR-2499

`O=C(O)[C@H](Cc1ccccc1)N1C(=O)/C(=C/c2cccc(Oc3ccc(Cl)c(Cl)c3)c2)SC1=S` [Rh 1] was tested, and the MBC ([1]; E. faecalis ERV103 HM-934) was 8 µM (≈ 4.24 µg/mL), the MIC ([1]; E. faecalis ERV103 HM-934) was 8 µM (≈ 4.24 µg/mL) and the MBC [1, 14] was 32 µM (≈ 17 µg/mL). The MIC [1, 14] was 8 µM (≈ 4.24 µg/mL), the MBC ([1]; E. faecalis R712 HM-335) was 8 µM (≈ 4.24 µg/mL) and the MIC ([1]; E. faecalis R712 HM-335) was 4 µM (≈ 2.12 µg/mL). For the same molecule, the MBC ([1]; E. faecalis S613 HM-334) was 8 µM (≈ 4.24 µg/mL), the MIC ([1]; E. faecalis S613 HM-334) was 8 µM (≈ 4.24 µg/mL) and the MBC ([1]; E. faecalis TX0104 HM-201) was 8 µM (≈ 4.24 µg/mL). For the same molecule, the MIC ([1]; E. faecalis TX0104 HM-201) was 8 µM (≈ 4.24 µg/mL), the MBC ([2]; E. faecium E417 HM-965) was > 64 µM and the MIC ([2]; E. faecium E417 HM-965) was 8 µM (≈ 4.24 µg/mL). For the same molecule, the MBC ([2]; E. faecium E1071 NR-28978) was 64 µM (≈ 33.9 µg/mL), the MIC ([2]; E. faecium E1071 NR-28978) was 8 µM (≈ 4.24 µg/mL) and the MBC [2, 15] was 32 µM (≈ 17 µg/mL). For the same molecule, the MIC [2, 15] was 8 µM (≈ 4.24 µg/mL), the MBC [2, 16] was 64 µM (≈ 33.9 µg/mL) and the MIC [2, 16] was 8 µM (≈ 4.24 µg/mL). For the same molecule, the MBC [2, 17] was 16 µM (≈ 8.49 µg/mL), the MIC [2, 17] was 4 µM (≈ 2.12 µg/mL) and the MIC50 ([3]; 11 MRSA strains) was 8 µM (≈ 4.24 µg/mL). The MIC90 ([3]; 11 MRSA strains) was 8 µM (≈ 4.24 µg/mL), the MBC ([3]; MRSA NRS 1) was 8 µM (≈ 4.24 µg/mL) and the MIC ([3]; MRSA NRS 1) was 8 µM (≈ 4.24 µg/mL). It also gave an MBC ([3]; MRSA NRS 19) of 8 µM (≈ 4.24 µg/mL), an MIC ([3]; MRSA NRS 19) of 8 µM (≈ 4.24 µg/mL) and an MBC ([3]; MRSA NRS 37) of 8 µM (≈ 4.24 µg/mL). For the same molecule, the MIC ([3]; MRSA NRS 37) was 8 µM (≈ 4.24 µg/mL), the MBC ([3]; MRSA NRS 107) was 8 µM (≈ 4.24 µg/mL) and the MIC ([3]; MRSA NRS 107) was 8 µM (≈ 4.24 µg/mL). The MBC ([3]; MRSA NRS 119) was 8 µM (≈ 4.24 µg/mL), the MIC ([3]; MRSA NRS 119) was 8 µM (≈ 4.24 µg/mL) and the MBC ([3]; MRSA NRS 382) was 8 µM (≈ 4.24 µg/mL). The MIC ([3]; MRSA NRS 382) was 8 µM (≈ 4.24 µg/mL), the MBC ([3]; MRSA NRS 383) was 8 µM (≈ 4.24 µg/mL) and the MIC ([3]; MRSA NRS 383) was 8 µM (≈ 4.24 µg/mL). The MBC ([3]; MRSA NRS 384) was 32 µM (≈ 17 µg/mL), the MIC ([3]; MRSA NRS 384) was 8 µM (≈ 4.24 µg/mL) and the MBC ([3]; MRSA NRS 385) was 8 µM (≈ 4.24 µg/mL). It also gave an MIC ([3]; MRSA NRS 385) of 8 µM (≈ 4.24 µg/mL), an MBC ([3]; MRSA NRS 386) of 16 µM (≈ 8.49 µg/mL) and an MIC ([3]; MRSA NRS 386) of 8 µM (≈ 4.24 µg/mL). The MBC ([3]; MRSA NRS 387) was 8 µM (≈ 4.24 µg/mL), the MIC ([3]; MRSA NRS 387) was 8 µM (≈ 4.24 µg/mL) and the MIC50 ([4]; 15 VRSA strains, read-out: MIC 50) was 8 µM (≈ 4.24 µg/mL). It also gave an MIC90 ([4]; 15 VRSA strains, read-out: MIC 90) of 8 µM (≈ 4.24 µg/mL), an MBC ([4]; VRSA 1, read-out: MBC) of 8 µM (≈ 4.24 µg/mL) and an MIC ([4]; VRSA 1, read-out: MIC) of 8 µM (≈ 4.24 µg/mL). The MBC ([4]; VRSA 2, read-out: MBC) was 8 µM (≈ 4.24 µg/mL), the MIC ([4]; VRSA 2, read-out: MIC) was 8 µM (≈ 4.24 µg/mL) and the MBC ([4]; VRSA 3a, read-out: MBC) was 16 µM (≈ 8.49 µg/mL). The MIC ([4]; VRSA 3a, read-out: MIC) was 8 µM (≈ 4.24 µg/mL), the MBC ([4]; VRSA 3b, read-out: MBC) was 8 µM (≈ 4.24 µg/mL) and the MIC ([4]; VRSA 3b, read-out: MIC) was 8 µM (≈ 4.24 µg/mL). For the same molecule, the MBC ([4]; VRSA 4, read-out: MBC) was 8 µM (≈ 4.24 µg/mL), the MIC ([4]; VRSA 4, read-out: MIC) was 8 µM (≈ 4.24 µg/mL) and the MBC ([4]; VRSA 5, read-out: MBC) was 16 µM (≈ 8.49 µg/mL). The MIC ([4]; VRSA 5, read-out: MIC) was 8 µM (≈ 4.24 µg/mL), the MBC ([4]; VRSA 6, read-out: MBC) was 8 µM (≈ 4.24 µg/mL) and the MIC ([4]; VRSA 6, read-out: MIC) was 4 µM (≈ 2.12 µg/mL). For the same molecule, the MBC ([4]; VRSA 7, read-out: MBC) was 8 µM (≈ 4.24 µg/mL), the MIC ([4]; VRSA 7, read-out: MIC) was 8 µM (≈ 4.24 µg/mL) and the MBC ([4]; VRSA 8, read-out: MBC) was 32 µM (≈ 17 µg/mL). It also gave an MIC ([4]; VRSA 8, read-out: MIC) of 4 µM (≈ 2.12 µg/mL), an MBC ([4]; VRSA 9, read-out: MBC) of 32 µM (≈ 17 µg/mL) and an MIC ([4]; VRSA 9, read-out: MIC) of 8 µM (≈ 4.24 µg/mL). The MBC ([4]; VRSA 10, read-out: MBC) was 32 µM (≈ 17 µg/mL), the MIC ([4]; VRSA 10, read-out: MIC) was 8 µM (≈ 4.24 µg/mL) and the MBC ([4]; VRSA 11a, read-out: MBC) was 16 µM (≈ 8.49 µg/mL). It also gave an MIC ([4]; VRSA 11a, read-out: MIC) of 8 µM (≈ 4.24 µg/mL), an MBC ([4]; VRSA 11b, read-out: MBC) of 32 µM (≈ 17 µg/mL) and an MIC ([4]; VRSA 11b, read-out: MIC) of 8 µM (≈ 4.24 µg/mL). It also gave an MBC ([4]; VRSA 12, read-out: MBC) of 32 µM (≈ 17 µg/mL), an MIC ([4]; VRSA 12, read-out: MIC) of 8 µM (≈ 4.24 µg/mL) and an MBC ([4]; VRSA 13, read-out: MBC) of 32 µM (≈ 17 µg/mL). It also gave an MIC ([4]; VRSA 13, read-out: MIC) of 8 µM (≈ 4.24 µg/mL), an MBC [5, 18] of 2 µM (≈ 1.06 µg/mL) and an MIC [5, 18] of 2 µM (≈ 1.06 µg/mL). For the same molecule, the MBC [5, 19] was 4 µM (≈ 2.12 µg/mL), the MIC [5, 19] was 4 µM (≈ 2.12 µg/mL) and the MIC ([6]; C. difficile HM-88) was 4 µM (≈ 2.12 µg/mL). The MIC ([6]; C. difficile HM-745) was 2 µM (≈ 1.06 µg/mL), the MIC ([6]; C. difficile HM-746) was 4 µM (≈ 2.12 µg/mL) and the MIC ([6]; C. difficile Isolate-1 NR-13427) was 4 µM (≈ 2.12 µg/mL). For the same molecule, the MIC ([6]; C. difficile Toxigenic Strain P8 NR-32888) was 4 µM (≈ 2.12 µg/mL), the MIC ([7]; ATCC9721) was > 128 µM and the MIC ([7]; ATCC15442) was > 128 µM. The MIC ([8]; K. pneumoniae NR-15417) was >128 µM, the MIC ([8]; Klebsiella pneumoniae) was > 128 µM and the MIC ([9]; Klebsiella pneumoniae ATCC BAA 2146, colistin (+) […]) was >64 µM. For the same molecule, the MIC ([9]; Klebsiella pneumoniae, BAA2146) was > 128 µM, the MIC ([10]; Pseudomonas aeruginosa ATCC 921, colistin (+) […], read-out: MIC) was >64 µM and the MIC ([10]; Pseudomonas aeruginosa, ATCC921) was > 128 µM. For the same molecule, the MIC ([11]; Acinetobacter baumannii ATCC BAA747, PMBN (+) 4 μg/mL, read-out: MIC) was >64 µM, the MIC ([11]; Acinetobacter baumannii ATCC BAA19606, PMBN (+) 4 μg/mL, read-out: MIC) was >64 µM and the MIC ([11]; Acinetobacter baumannii, ATCCBAA747) was > 128 µM. The MIC ([11]; Acinetobacter baumannii, ATCCBAA19606) was > 128 µM, the MIC ([12]; Salmonella Typhimurium ATCC 700720, PMBN (+) 4 μg/mL, read-out: MIC) was >128 µM and the MIC ([12]; Salmonella enterica, ATCC 700720 / TYPHIMURIUM) was > 128 µM. For the same molecule, the MIC ([13]; Pseudomonas aeruginosa ATCC 9721, PMBN (+) 4 μg/mL, read-out: MIC) was >64 µM and the MIC ([13]; Pseudomonas aeruginosa, ATCC9721) was > 128 µM.
